Assay results published in patent publication US4786644A, “1-aryl-3-quinolinecarboxamide” (Hoechst-Roussel Pharmaceuticals Inc., priority 1987, dated 1988).

How the values were obtained:
[1] = tested on: phenyl-p-quinone writhing; experiment: phenyl-p-quinone writhing assay in mice (analgesic); assay type: in vivo, mouse (male, Charles River, CD-1); settings: for Analgesic Activity, % Inhibition of Writhing: mouse, screening dose of 20 mg/kg, s.c.
Protocol: The procedure employed to determine analgetic utility is a modification of the phenyl-p-quinone writhing assay in mice, a standard assay for analgetic activity [Proc. Soc. Exptl. […] The solution is administered to the subject mice intraperitoneally at a dose of 10 ml per kg of body weight. A characteristic "writhe", an inward rotation of one or more feet with twisting and turning of the trunk, drawing in of the abdominal wall, lordosis and arching of the back, is produced.
A total of 28 male mice (Charles River, CD-1), weighing 18 to 30 grams, are employed for a time response. The subject animals receive food and water ad libitum. Test compounds are dissolved in distilled water, or suspended in distilled water containing one drop of a suitable surfactant, such as Tween-80.
Four groups of five animals (20 animals) are given the test compound subcutaneously (s.c.) or orally (p.o.) at 15, 30, 45 and 60 minutes prior to administration of the phenyl-p-quinone. A control group (2 animals per group) receive an equal volume of the vehicle. After the administration of the phenyl-p-quinone, the mice are placed separately in one liter beakers, and after five minutes, are observed for ten minutes. The number of writhes for each animal is recorded. The following formula is used to compute the percent inhibition: [formula]
A dose range determination is run in the same manner as the time response except 10 animals per group are tested at the peak time of test drug activity. Fifty animals, 4 test drug groups, and a vehicle control are employed. Animals are dosed and tested in a randomized manner. The time period with the greatest percent of inhibition is considered the peak time.

[2] = tested on: carrageenan-induced rat paw edema; experiment: carrageenan-induced rat paw edema antiinflammatory assay; assay type: in vivo; settings: screening dose of 100 mg/kg, p.o.
[3] = tested on: adjuvant-induced polyarthritis syndrome; experiment: adjuvant-induced polyarthritis syndrome in rats; assay type: in vivo, rat (male Charles River-Wistar Lewis); settings: rat, p.o., daily for 21 days
Protocol: This activity was measured by a procedure similar to that described by C. M. Pearson and F. D. Wood, Arthritis and Rheumatism, 2, 440 (1959).
Groups of 10 male Charles River-Wistar Lewis rats weighing 150 to 175 g were individually housed and maintained on a regular rat chow diet. Water was given ad libitum. The adjuvant was prepared by suspending 75 mg of Mycobacterium butyricum (Difco Laboratories, Detroit, Mich.) in 10 ml of white paraffin oil with continuous stirring for 2 hours at room temperature prior to administration. Test compounds are prepared by suspending the drug in water, adding one drop of Tween 80 per 10 ml of suspension, and homogenizing. The adjuvant suspension (0.1 ml) was injected into the footpad of the left hind paw of the rat. Test compound suspensions were adminstered orally (10 ml/kg) the day before adjuvant suspension injection and the administration was continued daily for 21 days. One group of ten rats was used for the test drug. Standard, adjuvant-injected control and non-injected control groups were run along with the test drug. Control animals received vehicle (10 ml/kg). Injected and non-injected paw volumes were determined on the day the adjuvant suspension was given, and on subsequent days thereafter (usually days 5, 10, 18, and 21) by the method of C. A. Winter, et al., Proc. Soc. Exp. Biol. Med., 111, 544 (1962).
The percent inhibition of paw volume (injected and non-injected paw) were calculated by the following formula: [formula] The results of the adjuvant-induced polyarthritis syndrome test procedure for several of the compounds of this invention are provided in Table 2.

SMILES	Inhibition of Carrageenan-Induced Rat Paw Edema, Percent Inhibition [2] [%]	percent inhibition of paw volume, Adjuvant-Treated Paw ([3]; screening dose of 50 mg/kg) [%]	percent inhibition of paw volume, Non-Injected Paw ([3]; screening dose of 50 mg/kg) [%]	Analgesic Activity, % Inhibition of Writhing [1] [%]	other results
CC(=O)Oc1ccccc1C(=O)O [Aspirin, reference compound]	-29	-22	-33	–	ED50 ([1]; Mus musculus, sc, read-out: ED50 (dose effecting 50% inhibition of writhing)): 32.8 mg/kg
O=C(Nc1ccccn1)c1nc(-c2ccccc2)c2ccccc2c1O [Example 1, 4-Hydroxy-1-phenyl-N-(2-pyridyl)-3-isoquinolinecarboxamide]	–	–	–	–	percent inhibition of paw volume, Adjuvant-Treated Paw ([3]; screening dose of 45 mg/kg): +1%; percent inhibition of paw volume, Non-Injected Paw ([3]; screening dose of 45 mg/kg): -17%
O=C(Nc1cccc(Cl)c1)c1nc(-c2ccccc2)c2ccccc2c1O [Example 3, N-(3-Chlorophenyl)-4-hydroxy-1-phenyl-3-isoquinolinecarboxamide]	–	–	–	51	–
O=C(Nc1ccc(Cl)cn1)c1nc(-c2ccccc2)c2ccccc2c1O [Example 4, N-(5-Chloro-2-pyridyl)-4-hydroxy-1-phenyl-3-isoquinolinecarboxamide]	–	-22	-38	57	–
O=C(Nc1ccccc1)C1=C(O)c2ccccc2N(c2ccccc2)C1 [Example 8, 1,2-Dihydro-4-hydroxy-1-phenyl-N-phenyl-3-quinolinecarboxamide]	-28	-5	-26	–	–
O=C(Nc1cnccn1)C1=C(O)c2ccccc2N(c2ccccc2)C1 [Example 9, 1,2-Dihydro-4-hydroxy-1-phenyl-N-(2-pyrazinyl)-3-quinolinecarboxamide]	-24	–	–	31	–
Cc1csc(NC(=O)C2=C(O)c3ccccc3N(c3ccccc3)C2)n1 [Example 10, 1,2-Dihydro-4-hydroxy-N-(4-methyl-2-thiazolyl)-1-phenyl-3-quinolinecarboxamide]	–	–	–	36	–
O=C(Nc1ccc(Br)cn1)C1=C(O)c2ccccc2N(c2ccccc2)C1 [Example 12, N-(5-Bromo-2-pyridyl)-1,2-dihydro-4-hydroxy-1-phenyl-3-quinolinecarboxamide]	–	-2	-22	39	–
O=C(Nc1ccccn1)c1cn(-c2ccccc2)c2ccccc2c1=O [Example 13, 1,4-Dihydro-4-oxo-1-phenyl-N-(2-pyridyl)-3-quinolinecarboxamide]	-25	–	–	–	–
O=C(Nc1cnccn1)c1cn(-c2ccccc2)c2ccccc2c1=O [Example 17, 1,4-Dihydro-4-oxo-1-phenyl-N-(2-pyrazinyl)-3-quinolinecarboxamide]	-23	-7	-23	–	–
Cc1csc(NC(=O)c2cn(-c3ccccc3)c3ccccc3c2=O)n1 [Example 18, 1,4-Dihydro-N-(4-methyl-2-thiazolyl)-4-oxo-1-phenyl-3-quinolinecarboxamide]	-28	-12	-26	–	–
Cc1cccc(NC(=O)c2cn(-c3ccccc3)c3ccccc3c2=O)n1 [Example 19, 1,4-Dihydro-N-(6-methyl-2-pyridyl)-4-oxo-1-phenyl-3-quinolinecarboxamide]	–	–	–	35	–
Cc1ccc(NC(=O)c2cn(-c3ccccc3)c3ccccc3c2=O)nc1 [Example 20, 1,4-Dihydro-N-(5-methyl-2-pyridyl)-4-oxo-1-phenyl-3-quinolinecarboxamide]	–	–	–	30	–
